Read-outs that look alike come from different tables or passages of the source.
Assays:
RPMI-8226 = assay: NCI-60 SRB screen; assay type: cell-based; conditions: Homo sapiens, single dose 10^−5 M, read-out: Growth inhibition (%)
HOP-92 = assay: NCI-60 SRB screen; assay type: cell-based, human; conditions: Homo sapiens, single dose 10^−5 M, read-out: Growth inhibition (%)
PC-3 = assay: NCI-60 SRB screen; assay type: cell-based, human; conditions: Homo sapiens, single dose 10^−5 M, read-out: Growth inhibition (%)
MDA-MB-468 = assay: NCI-60 SRB screen; assay type: cell-based, human; conditions: Homo sapiens, single dose 10^−5 M, read-out: Growth inhibition (%)
T-47D = assay: NCI-60 SRB screen; assay type: cell-based, human; conditions: Homo sapiens, T47D, single dose 10^−5 M, read-out: Growth inhibition (%)
CAKI-1 = assay: NCI-60 SRB screen; assay type: cell-based, human; conditions: Homo sapiens, single dose 10^−5 M, read-out: Growth inhibition (%)
BT-549 = assay: NCI-60 SRB screen; assay type: cell-based, human; conditions: Homo sapiens, single dose 10^−5 M, read-out: Growth inhibition (%)
A498 = assay: NCI-60 SRB screen; assay type: cell-based, human; conditions: Homo sapiens, single dose 10^−5 M, read-out: Growth inhibition (%)
MDA-MB-231/ATCC = assay: NCI-60 SRB screen; assay type: cell-based, human; conditions: Homo sapiens, single dose 10^−5 M, read-out: Growth inhibition (%)
DU-145 = assay: NCI-60 SRB screen; assay type: cell-based, human; conditions: Homo sapiens, single dose 10^−5 M, read-out: Growth inhibition (%)
OVCAR-5 = assay: NCI-60 SRB screen; assay type: cell-based, human; conditions: Homo sapiens, single dose 10^−5 M, read-out: Growth inhibition (%)
MCF7 = assay: NCI-60 SRB screen; assay type: cell-based, human; conditions: Homo sapiens, read-out: Growth inhibition (%)
SNB-19 = assay: NCI-60 SRB screen; assay type: cell-based; conditions: Homo sapiens; single dose 10^−5 M; SNB-19, CNS cancer; read-out: Growth inhibition (%)
U251 = assay: NCI-60 SRB screen; assay type: cell-based, human; conditions: Homo sapiens, U-251; single dose 10^−5 M; U251, CNS cancer; read-out: Growth inhibition (%)
SF-539 = assay: NCI-60 SRB screen; assay type: cell-based, human; conditions: Homo sapiens; single dose 10^−5 M; SF-539, CNS cancer; read-out: Growth inhibition (%)
SNB-75 = assay: NCI-60 SRB screen; assay type: cell-based, human; conditions: Homo sapiens; single dose 10^−5 M; SNB-75, CNS cancer; read-out: Growth inhibition (%)
[1] = HOP-92, Non-small cell lung carcinoma
[2] = single dose 10^−5 M, MCF-7, Breast cancer

| SMILES | inhibition at 10 µM (RPMI-8226; RPMI-8226) | inhibition at 10 µM (HOP-92; HOP-92) | inhibition at 10 µM (PC-3; PC-3) | inhibition at 10 µM (MDA-MB-468; MDA-MB-468) | inhibition at 10 µM (T-47D) | inhibition at 10 µM (CAKI-1; CAKI-1) | inhibition at 10 µM (BT-549; BT-549) | inhibition at 10 µM (A498; A498) | inhibition at 10 µM (MDA-MB-231/ATCC; MDA-MB-231, MDAMB231/ATCC) | inhibition at 10 µM (DU-145; DU-145) | inhibition at 10 µM (OVCAR-5; OVCAR-5) | inhibition at 10 µM (MCF7; MCF-7, single dose 10^−5 M) | inhibition at 10 µM (RPMI-8226; RPMI-8226, Leukaemia) | inhibition at 10 µM (HOP-92; [1]) | inhibition at 10 µM (PC-3; PC-3, Prostate cancer) | inhibition at 10 µM (SNB-19) | inhibition at 10 µM (MDA-MB-468; MDA-MB-468, Breast cancer) | inhibition at 10 µM (T-47D; Breast cancer) | inhibition at 10 µM (CAKI-1; CAKI-1, Renal cancer) | inhibition at 10 µM (BT-549; BT-549, Breast cancer) | also measured |
| --- | --- | --- | --- | --- | --- | --- | --- | --- | --- | --- | --- | --- | --- | --- | --- | --- | --- | --- | --- | --- | --- |
| O=C1NC(c2cccc([N+](=O)[O-])c2)c2sc3c(F)cccc3c2C1Cl (stereo not shown) [Compound 4d, 4-Chloro-8-fluoro-1-(3-nitrophenyl)-1,2-dihydro[1]benzothieno[2,3-c] pyridine-3(4H)-one] | 9.61% | 5.89% | 3.8% | -8.27% | 8.7% | 27.4% | 3.62% | -0.03% | 5.22% | -8.57% | -3.92% | 8.44% | – | – | – | – | – | – | – | – | melting point: 160 to 162 °C |
| N#CC1C(=O)NC(c2cccc([N+](=O)[O-])c2)c2sc3c(F)cccc3c21 (stereo not shown) [Compound 5d, 4-Cyano-8-fluoro-1-(3-nitrophenyl)-1,2-dihydro[1]benzothieno[2,3-c] pyridin-3(4H)-one] | 14% | 17.2% | 13.2% | -6.48% | 20.1% | 14.4% | 8.35% | 17.3% | 19.2% | -10% | 1.54% | 15.1% | – | – | – | – | – | – | – | – | melting point: 180 to 182 °C |
| CCN1CCN(C2C(=O)NC(c3cccc([N+](=O)[O-])c3)c3sc4c(F)cccc4c32)CC1 (stereo not shown) [Compound 6a, 4-(4-Ethylpiperazin-1-yl)-8-fluoro-1-(3-nitrophenyl)-1,2-dihydro[1]benzo thieno[2,3-c]pyridin-3(4H)-one] | 4.93% | -1.02% | 9.37% | -7.69% | -1.25% | 18.4% | -0.58% | 0.35% | -0.79% | -10.8% | -3.55% | 0.6% | – | – | – | – | – | – | – | – | melting point: 240 to 241 °C |
| O=C1NC(c2cccc([N+](=O)[O-])c2)c2sc3c(F)cccc3c2C1N1CCCCC1 (stereo not shown) [Compound 6c, 8-Fluoro-1-(3-nitrophenyl)-4-(piperidin-1-yl)-1,2-dihydro[1]benzothieno [2,3-c]pyridin-3(4H)-one] | 5.15% | 14.1% | 8.67% | -9.31% | 8.12% | 17.6% | 1.61% | 7.34% | 0.28% | -9.9% | -1.56% | 10.2% | – | – | – | – | – | – | – | – | – |
| CCN1CCN(C2=C(Cl)c3c(sc4c(F)cccc34)C(c3cccc([N+](=O)[O-])c3)N2)CC1 (stereo not shown) [Compound 8a, 4-Chloro-3–(4-ethylpiperzin-1-yl)-8-fluoro-1-(3-nitrophenyl)-1,2-dihydro [1]benzothieno[2,3-c]pyridine] | – | – | – | – | – | – | – | – | – | – | – | – | 15.4% | 10.7% | 7.7% | 1.26% | -9.64% | 11.1% | 21.9% | 9.38% | inhibition at 10 µM (A498; A498, Renal cancer): 0.93%; inhibition at 10 µM (U251): 6.16%; inhibition at 10 µM (MDA-MB-231/ATCC; MDA-MB 231/ATCC, Breast cancer): 12%; inhibition at 10 µM (DU-145; DU-145, Prostate cancer): -7.24%; inhibition at 10 µM (SF-539): 4.31%; inhibition at 10 µM (SNB-75): 11.8%; inhibition at 10 µM (OVCAR-5; OVCAR-5, Ovarian cancer): 1.9%; inhibition at 10 µM (MCF7; [2]): 4.08% |
| CCN1CCN(C2=C(C#N)c3c(sc4c(F)cccc34)C(c3cccc([N+](=O)[O-])c3)N2)CC1 (stereo not shown) [Compound 8d, 4-Cyano-3-(4-ethylpiperazin-1-yl)-8-fluoro-1-(3-nitrophenyl)-1,2-dihydro [1]benzothieno[2,3-c]pyridine] | – | – | – | – | – | – | – | – | – | – | – | – | 1.72% | 18.9% | 9.1% | -1.27% | -2.69% | 22.3% | 25.2% | 1.51% | inhibition at 10 µM (A498; A498, Renal cancer): 12.1%; inhibition at 10 µM (U251): 0.9%; inhibition at 10 µM (MDA-MB-231/ATCC; MDA-MB 231/ATCC, Breast cancer): 19.8%; inhibition at 10 µM (DU-145; DU-145, Prostate cancer): -11.2%; inhibition at 10 µM (SF-539): 6.11%; inhibition at 10 µM (SNB-75): 8.49%; inhibition at 10 µM (OVCAR-5; OVCAR-5, Ovarian cancer): -4.1%; inhibition at 10 µM (MCF7; [2]): 9.44% |
| N#CC1=C(N2CCOCC2)NC(c2cccc([N+](=O)[O-])c2)c2sc3c(F)cccc3c21 (stereo not shown) [Compound 8e, 4-Cyano-3-(4-morpholino)-8-fluoro-1-(3-nitrophenyl)-1,2-dihydro [1]benzothieno[2,3-c]pyridine] | – | – | – | – | – | – | – | – | – | – | – | – | 6.66% | 11.8% | 12.3% | -0.92% | -11% | -4.79% | 27.4% | 1.14% | inhibition at 10 µM (A498; A498, Renal cancer): 3.17%; inhibition at 10 µM (U251): -2.2%; inhibition at 10 µM (MDA-MB-231/ATCC; MDA-MB 231/ATCC, Breast cancer): 13.4%; inhibition at 10 µM (DU-145; DU-145, Prostate cancer): -12.3%; inhibition at 10 µM (SF-539): 3.33%; inhibition at 10 µM (SNB-75): 7.28%; inhibition at 10 µM (OVCAR-5; OVCAR-5, Ovarian cancer): 0.99%; inhibition at 10 µM (MCF7; [2]): -1.68% |
| N#CC1=C(Nc2ccccc2F)NC(c2cccc([N+](=O)[O-])c2)c2sc3c(F)cccc3c21 (stereo not shown) [Compound 10, 4-Cyano-8-fluoro-3((2-fluorophenyl)amino)-1–(3-nitrophenyl)-1,2-dihydro[1]benzothieno[2,3-c]pyridine] | – | – | – | – | – | – | – | – | – | – | – | – | 1.46% | 9.6% | 7.8% | -3.45% | -7.35% | -2.94% | 21.1% | 1.04% | inhibition at 10 µM (A498; A498, Renal cancer): 3.94%; inhibition at 10 µM (U251): -9.9%; inhibition at 10 µM (MDA-MB-231/ATCC; MDA-MB 231/ATCC, Breast cancer): 17.4%; inhibition at 10 µM (DU-145; DU-145, Prostate cancer): -8.61%; inhibition at 10 µM (SF-539): 6.04%; inhibition at 10 µM (SNB-75): 10.1%; inhibition at 10 µM (OVCAR-5; OVCAR-5, Ovarian cancer): -3.49%; inhibition at 10 µM (MCF7; [2]): 4.92% |

Reference: article PMC8330742, “New benzothieno[2,3-c]pyridines as non-steroidal CYP17 inhibitors: design, synthesis, anticancer screening, apoptosis induction, and in silico ADME profile studies” (Journal of Enzyme Inhibition and Medicinal Chemistry, 2021)
